This is an account of results in patent US20250122183A1 (Pfizer Inc., priority 2023, published 2025).

In assay [1] the target is KAT7+JADE1+EAF6+ING5 4 protein complex (Homo sapiens (Human), UniProt O95251). The assay is described as follows: KAT7 JADE1 assay (SAMDI-MS acetylation of H3 1-21 peptide). Particulars: Morrison equation fit; replicate number in parentheses; read-out: KAT7 JADE1 Ki (nM) (replicate number). It is filed as biochemical.
The next assay has as its target KAT6A Full length enzyme (Homo sapiens (Human), UniProt Q92794). The assay is described as follows: KAT6A assay (SAMDI-MS acetylation of H3 1-21 peptide). The note with it: Morrison equation fit; replicate number in parentheses; read-out: KAT6A Ki (nM) (replicate number). It is filed as biochemical.

Chain of KAT6A Full length enzyme (Q92794 other isoform, or with tags, fused parts or gaps): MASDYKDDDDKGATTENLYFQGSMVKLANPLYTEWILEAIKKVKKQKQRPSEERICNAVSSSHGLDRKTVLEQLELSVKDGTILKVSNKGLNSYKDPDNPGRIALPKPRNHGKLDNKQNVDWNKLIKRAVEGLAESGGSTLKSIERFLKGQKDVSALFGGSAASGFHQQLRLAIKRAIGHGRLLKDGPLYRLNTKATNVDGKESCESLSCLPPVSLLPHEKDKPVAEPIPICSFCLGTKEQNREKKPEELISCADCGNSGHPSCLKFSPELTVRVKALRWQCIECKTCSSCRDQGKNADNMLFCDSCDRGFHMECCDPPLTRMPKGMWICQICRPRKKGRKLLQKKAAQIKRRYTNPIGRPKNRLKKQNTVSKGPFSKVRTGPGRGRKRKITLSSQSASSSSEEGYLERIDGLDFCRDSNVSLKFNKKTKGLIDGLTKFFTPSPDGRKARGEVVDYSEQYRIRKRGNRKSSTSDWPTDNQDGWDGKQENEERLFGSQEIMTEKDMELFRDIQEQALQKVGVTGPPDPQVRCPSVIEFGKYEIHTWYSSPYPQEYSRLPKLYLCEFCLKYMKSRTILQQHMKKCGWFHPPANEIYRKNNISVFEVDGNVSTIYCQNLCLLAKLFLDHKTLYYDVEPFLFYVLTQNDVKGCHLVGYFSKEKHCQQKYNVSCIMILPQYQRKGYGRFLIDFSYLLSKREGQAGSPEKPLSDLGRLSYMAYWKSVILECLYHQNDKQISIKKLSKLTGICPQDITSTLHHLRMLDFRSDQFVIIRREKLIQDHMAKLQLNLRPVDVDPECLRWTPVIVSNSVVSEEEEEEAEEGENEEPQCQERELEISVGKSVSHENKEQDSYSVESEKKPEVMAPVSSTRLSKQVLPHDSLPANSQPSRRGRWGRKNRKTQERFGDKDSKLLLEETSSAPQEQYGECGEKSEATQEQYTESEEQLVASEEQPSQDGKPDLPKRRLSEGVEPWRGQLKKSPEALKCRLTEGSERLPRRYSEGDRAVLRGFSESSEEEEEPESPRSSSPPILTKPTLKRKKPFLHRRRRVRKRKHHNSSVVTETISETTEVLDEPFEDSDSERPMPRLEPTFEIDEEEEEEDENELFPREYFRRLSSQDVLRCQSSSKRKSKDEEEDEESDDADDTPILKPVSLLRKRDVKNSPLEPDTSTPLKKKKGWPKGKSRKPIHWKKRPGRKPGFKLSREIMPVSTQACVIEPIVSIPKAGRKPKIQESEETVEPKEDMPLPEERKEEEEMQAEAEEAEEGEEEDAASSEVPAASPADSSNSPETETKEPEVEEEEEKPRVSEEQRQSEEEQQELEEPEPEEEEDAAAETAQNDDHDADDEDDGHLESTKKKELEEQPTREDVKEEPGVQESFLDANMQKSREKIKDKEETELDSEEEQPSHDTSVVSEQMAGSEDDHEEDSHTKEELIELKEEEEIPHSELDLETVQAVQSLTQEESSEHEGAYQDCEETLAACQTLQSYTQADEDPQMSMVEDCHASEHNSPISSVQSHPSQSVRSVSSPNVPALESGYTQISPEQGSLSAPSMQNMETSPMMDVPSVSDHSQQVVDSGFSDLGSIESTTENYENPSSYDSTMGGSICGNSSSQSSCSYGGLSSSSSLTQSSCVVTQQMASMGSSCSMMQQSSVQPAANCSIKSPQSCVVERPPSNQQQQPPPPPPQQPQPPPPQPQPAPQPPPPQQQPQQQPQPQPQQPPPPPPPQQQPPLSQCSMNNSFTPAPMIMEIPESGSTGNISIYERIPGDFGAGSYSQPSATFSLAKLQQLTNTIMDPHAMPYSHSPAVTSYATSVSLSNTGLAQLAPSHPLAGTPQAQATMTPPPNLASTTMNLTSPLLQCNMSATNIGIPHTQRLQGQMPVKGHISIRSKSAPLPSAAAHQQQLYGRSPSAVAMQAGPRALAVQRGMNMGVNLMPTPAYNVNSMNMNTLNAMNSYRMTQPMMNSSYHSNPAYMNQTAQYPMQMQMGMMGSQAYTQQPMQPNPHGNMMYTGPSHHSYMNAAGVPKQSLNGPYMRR

A word on the Ki: it is the dissociation constant of the complex between target and ligand, obtained from inhibition or displacement. For the compound `COc1cc2c(NS(=O)(=O)c3c(OC)cc(CN4CCCC(F)(F)C4)cc3OC)noc2cc1Nc1cc(C2CC2)n[nH]1` [Example 199, N-{6-[(3-cyclopropyl-1H-pyrazol-5-yl)amino]-5-methoxy-1,2-benzoxazol-3-yl}-4-[(3,3-difluoropiperidin-1-yl)methyl]-2,6-dimethoxybenzene-1-sulfonamide], the Ki in assay [1] amounted to 5.2 nM; on KAT6A Full length enzyme, 0.7 nM.
For `COc1cc2c(NS(=O)(=O)c3c(OC)cc(CN4CC(C)C4)cc3OC)noc2cc1Nc1cc(C2CC2)n[nH]1` [Example 200, N-{6-[(3-cyclopropyl-1 H-pyrazol-5-yl)amino]-5-methoxy-1,2-benzoxazol-3-yl}-2,6-dimethoxy-4-[(3-methylazetidin-1-yl)methyl]benzene-1-sulfonamide], in that order: 17.2 nM and 2.1 nM.
For `COc1cc2c(NS(=O)(=O)c3c(OC)cc(CN4CC[C@@H](C(F)F)C4)cc3OC)noc2cc1Nc1cc(C2CC2)n[nH]1` [Example 204], in that order: 4.9 nM and 1.1 nM.
For `COc1cc2c(NS(=O)(=O)c3c(OC)cc(CN4CCC(C(F)(F)F)C4)cc3OC)noc2cc1Nc1cc(C2CC2)n[nH]1` (centres unmarked) [Example 205, N-{6-[(3-cyclopropyl-1H-pyrazol-5-yl)amino]-5-methoxy-1,2-benzoxazol-3-yl}-2,6-dimethoxy-4-{[3-(trifluoromethyl)pyrrolidin-1-yl]methyl}benzene-1-sulfonamide], in that order: 6 nM and 1.4 nM.
For `COc1cc2c(NS(=O)(=O)c3c(OC)cc(CN4CCCC4(C)C)cc3OC)noc2cc1Nc1cc(C2CC2)n[nH]1` [Example 206, N-{6-[(3-cyclopropyl-1H-pyrazol-5-yl)amino]-5-methoxy-1,2-benzoxazol-3-yl}-4-[(2,2-dimethylpyrrolidin-1-yl)methyl]-2,6-dimethoxybenzene-1-sulfonamide], the figures for the Ki (in assay [1]; on KAT6A Full length enzyme) were 28.8 nM and 4.4 nM, respectively.
Regarding `COc1cc2c(NS(=O)(=O)c3c(OC)cc(-c4nccc(N(C)C)n4)cc3OC)noc2cc1Nc1cc(C2CC2)n[nH]1` [Example 216, N-{6-[(3-cyclopropyl-1H-pyrazol-5-yl)amino]-5-methoxy-1,2-benzoxazol-3-yl}-4-[4-(dimethylamino)pyrimidin-2-yl]-2,6-dimethoxybenzene-1-sulfonamide], the results for the Ki (in assay [1]; on KAT6A Full length enzyme) were 1.6 nM and 0.2 nM, respectively.
For `COc1cc2c(NS(=O)(=O)c3c(OC)cc(-c4cnc(N(C)C)cn4)cc3OC)noc2cc1Nc1cc(C2CC2)n[nH]1` [Example 217, N-{6-[(3-cyclopropyl-1H-pyrazol-5-yl)amino]-5-methoxy-1,2-benzoxazol-3-yl}-4-[5-(dimethylamino)pyrazin-2-yl]-2,6-dimethoxybenzene-1-sulfonamide], in that order: 1.9 nM and 0.2 nM.
Consider `COc1cc2c(NS(=O)(=O)c3c(OC)cc(-c4ncc(N(C)C)cn4)cc3OC)noc2cc1Nc1cc(C2CC2)n[nH]1` [Example 218, N-{6-[(3-cyclopropyl-1H-pyrazol-5-yl)amino]-5-methoxy-1,2-benzoxazol-3-yl}-4-[5-(dimethylamino)pyrimidin-2-yl]-2,6-dimethoxybenzene-1-sulfonamide], for which the values for the Ki (in assay [1]; at KAT6A Full length enzyme) were 0.4 nM and 0.1 nM, respectively.
For `COc1cc2c(NS(=O)(=O)c3c(OC)cc(-c4ccc(C)nn4)cc3OC)noc2cc1Nc1cc(C2CC2)n[nH]1` [Example 219, N-{6-[(3-cyclopropyl-1H-pyrazol-5-yl)amino]-5-methoxy-1,2-benzoxazol-3-yl}-2,6-dimethoxy-4-(6-methylpyridazin-3-yl)benzene-1-sulfonamide], in that order: 1.9 nM and 0.2 nM.
For `COc1cc2c(NS(=O)(=O)c3c(OC)cc(-c4cc5n(n4)CCOC5)cc3OC)noc2cc1Nc1cc(C2CC2)n[nH]1` [Example 220, N-{6-[(3-cyclopropyl-1H-pyrazol-5-yl)amino]-5-methoxy-1,2-benzoxazol-3-yl}-4-(6,7-dihydro-4H-pyrazolo[5,1-c][1,4]oxazin-2-yl)-2,6-dimethoxybenzene-1-sulfonamide], in that order: 4 nM and 0.4 nM.
